These compounds were tested against T1, human PAH with the R408W mutation (A375 R408W cells) (Homo sapiens, UniProt P00439, R408W) (assay: Cell Based Phenylalanine Flux Assay). Settings: A375 R408W cells; 24 hrs with compound, then 20 μM sepiapterin and 800 μM 13C9,15N-Phenylalanine for 4 hours; 13C-Tyrosine by LC-MS; average where tested multiple times.
T1 construct: expressed in transfected cells
T1 sequence (P00439 1-452 R408W): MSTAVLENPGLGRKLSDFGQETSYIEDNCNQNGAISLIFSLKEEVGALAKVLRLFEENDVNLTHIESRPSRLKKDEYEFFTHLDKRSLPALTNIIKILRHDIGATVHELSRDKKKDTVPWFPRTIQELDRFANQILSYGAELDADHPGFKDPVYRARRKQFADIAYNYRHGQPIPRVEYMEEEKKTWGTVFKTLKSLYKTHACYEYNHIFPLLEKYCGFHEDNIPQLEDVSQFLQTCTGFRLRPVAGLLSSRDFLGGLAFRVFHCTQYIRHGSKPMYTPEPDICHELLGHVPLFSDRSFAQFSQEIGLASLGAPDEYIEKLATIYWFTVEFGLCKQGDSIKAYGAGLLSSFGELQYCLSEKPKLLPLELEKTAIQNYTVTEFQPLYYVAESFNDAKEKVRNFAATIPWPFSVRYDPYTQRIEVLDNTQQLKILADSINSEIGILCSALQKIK
Outline: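 LC-MS quantitation of 13C-tyrosine in media gave AC50 values. Stable A375 R408W PAH cells were preincubated 24 h with compound, then fed 800 μM labelled Phe plus 20 μM sepiapterin for 4 h. Dose curves were 10-point, tested in duplicate, averaged over repeat runs.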

`O=C(c1ocnc1C(F)F)N1CCc2[nH]cnc2[C@@H]1c1nc2cccc(F)c2o1` [Example 174, (R)-(4-(difluoromethyl)oxazol-5-yl)(4-(7-fluorobenzo[d]oxazol-2-yl)-6,7-dihydro-1H-imidazo[4,5-c]pyridin-5(4H)-yl)methanone] was tested. Which AC50 did it give?
The AC50 was no more than 500 nM.

How did the AC50 turn out when `C[C@@H](O)c1nc(C(F)F)c(C(=O)N2CCc3[nH]cnc3[C@H]2c2nc3ccc(F)cc3o2)o1` [Example 239, (4-(difluoromethyl)-2-((R)-1-hydroxyethyl)oxazol-5-yl)((S)-4-(6-fluorobenzo[d]oxazol-2-yl)-6,7-dihydro-1H-imidazo[4,5-c]pyridin-5(4H)-yl)methanone] was run?
Its AC50 is 500 to 1000 nM.

Which AC50 does the source give for `O=C(c1nnc(-c2ccccn2)o1)N1CCc2[nH]cnc2[C@@H]1c1nc2c(F)cc(F)cc2o1` [Example 524, (R)-(4-(4,6-difluorobenzo[d]oxazol-2-yl)-6,7-dihydro-1H-imidazo[4,5-c]pyridin-5(4H)-yl)(5-(pyridin-2-yl)-1,3,4-oxadiazol-2-yl)methanone] here?
Its AC50 is 1000 to 5000 nM.

For `O=C(c1ocnc1C(F)F)N1CCc2[nH]cnc2[C@@H]1c1nc2c(F)ccc(F)c2o1` [Example 374, (R)-(4-(4,7-difluorobenzo[d]oxazol-2-yl)-6,7-dihydro-1H-imidazo[4,5-c]pyridin-5(4H)-yl)(4-(difluoromethyl)oxazol-5-yl)methanone], which AC50 is on record?
Its AC50 is no more than 500 nM.

`O=C(c1nnc(-c2cnn(C(F)F)c2)o1)N1CCc2[nH]cnc2[C@H]1c1nc2cccc(F)c2o1` [Example 875, (S)-(5-(1-(difluoromethyl)-1H-pyrazol-4-yl)-1,3,4-oxadiazol-2-yl)(4-(7-fluorobenzo[d]oxazol-2-yl)-6,7-dihydro-1H-imidazo[4,5-c]pyridin-5(4H)-yl)methanone] was tested. Which AC50 did it give?
The AC50 was no more than 500 nM.

`O=C(c1oc(-c2ccc(C(F)(F)F)cn2)nc1C(F)F)N1CCc2[nH]cnc2[C@H]1c1nc2cc(F)ccc2o1` [Example 444, (S)-(4-(difluoromethyl)-2-(5-(trifluoromethyl)pyridin-2-yl)oxazol-5-yl)(4-(5-fluorobenzo[d]oxazol-2-yl)-6,7-dihydro-1H-imidazo[4,5-c]pyridin-5(4H)-yl)methanone] was tested. Which AC50 did it give?
Its AC50 is no more than 500 nM.

How did the AC50 turn out when `CC(C)(O)C1CCN(c2ccc3c(C(=O)N4CCc5[nH]cnc5[C@@H]4c4nc5cccc(F)c5o4)cnn3c2)CC1` [Example 367, (R)-(4-(7-fluorobenzo[d]oxazol-2-yl)-6,7-dihydro-1H-imidazo[4,5-c]pyridin-5(4H)-yl)(6-(4-(2-hydroxypropan-2-yl)piperidin-1-yl)pyrazolo[1,5-a]pyridin-3-yl)methanone] was run?
The AC50 was 1000 to 5000 nM.

For `O=C(c1nnc(-c2ccc(F)c(F)c2)o1)N1CCc2[nH]cnc2[C@@H]1c1nc2cc(F)ccc2o1` [Example 76, (R)-(5-(3,4-difluorophenyl)-1,3,4-oxadiazol-2-yl)(4-(5-fluorobenzo[d]oxazol-2-yl)-6,7-dihydro-1H-imidazo[4,5-c]pyridin-5(4H)-yl)methanone], which AC50 is on record?
The AC50 was 1000 to 5000 nM.

For `O=C(c1ocnc1C(F)(F)F)N1CCc2[nH]cnc2[C@H]1c1nc2c(F)cccc2o1` [Example 167, (S)-(4-(4-fluorobenzo[d]oxazol-2-yl)-6,7-dihydro-1H-imidazo[4,5-c]pyridin-5(4H)-yl)(4-(trifluoromethyl)oxazol-5-yl)methanone], which AC50 is on record?
The AC50 was no more than 500 nM.

Which AC50 does the source give for `Cc1ccc(F)c2nc([C@@H]3c4nc[nH]c4CCN3C(=O)c3oc(C(C)(C)O)nc3C(F)F)oc12` [Example 723, (S)-(4-(difluoromethyl)-2-(2-hydroxypropan-2-yl)oxazol-5-yl)(4-(4-fluoro-7-methylbenzo[d]oxazol-2-yl)-6,7-dihydro-1H-imidazo[4,5-c]pyridin-5(4H)-yl)methanone] here?
Its AC50 is no more than 500 nM.

With `O=C(c1ocnc1C(F)F)N1CCc2[nH]cnc2[C@H]1c1nc2cc(Cl)cc(F)c2o1` [Example 608, (S)-(4-(5-chloro-7-fluorobenzo[d]oxazol-2-yl)-6,7-dihydro-1H-imidazo[4,5-c]pyridin-5(4H)-yl)(4-(difluoromethyl)oxazol-5-yl)methanone] as the compound, how does the AC50 read?
Its AC50 is no more than 500 nM.

With `Cc1ncoc1C(=O)N1CCc2[nH]cnc2[C@H]1c1nc2cccc(F)c2o1` [Example 569, (S)-(4-(7-fluorobenzo[d]oxazol-2-yl)-6,7-dihydro-1H-imidazo[4,5-c]pyridin-5(4H)-yl)(4-methyloxazol-5-yl)methanone] as the compound, how does the AC50 read?
The AC50 was no more than 500 nM.

`O=C(c1oc(C2(O)CC2)nc1C(F)F)N1CCc2[nH]cnc2[C@H]1c1nc2cccc(F)c2o1` [Example 214, (S)-(4-(difluoromethyl)-2-(1-hydroxycyclopropyl)oxazol-5-yl)(4-(7-fluorobenzo[d]oxazol-2-yl)-6,7-dihydro-1H-imidazo[4,5-c]pyridin-5(4H)-yl)methanone] was tested. Which AC50 did it give?
Its AC50 is no more than 500 nM.

With `Cc1ccc2oc([C@H]3c4nc[nH]c4CCN3C(=O)c3nnc(-c4ncccc4F)o3)nc2c1` [Example 654, (R)-(5-(3-fluoropyridin-2-yl)-1,3,4-oxadiazol-2-yl)(4-(5-methylbenzo[d]oxazol-2-yl)-6,7-dihydro-1H-imidazo[4,5-c]pyridin-5(4H)-yl)methanone] as the compound, how does the AC50 read?
The AC50 was 1000 to 5000 nM.

For `Cc1ccc2nc([C@@H]3c4nc[nH]c4CCN3C(=O)c3nnc(-c4cnn(C(F)F)c4)o3)oc2c1` [Example 681, (S)-(5-(1-(difluoromethyl)-1H-pyrazol-4-yl)-1,3,4-oxadiazol-2-yl)(4-(6-methylbenzo[d]oxazol-2-yl)-6,7-dihydro-1H-imidazo[4,5-c]pyridin-5(4H)-yl)methanone], which AC50 is on record?
Its AC50 is 500 to 1000 nM.

Which AC50 does the source give for `O=C(c1ocnc1C(F)F)N1CCc2[nH]cnc2[C@H]1c1nc2cccc(Cl)c2o1` [Example 425, (S)-(4-(7-chlorobenzo[d]oxazol-2-yl)-6,7-dihydro-1H-imidazo[4,5-c]pyridin-5(4H)-yl)(4-(difluoromethyl)oxazol-5-yl)methanone] here?
Its AC50 is no more than 500 nM.

Which AC50 does the source give for `CC(C)(C)c1nnc(C(=O)N2CCc3[nH]cnc3[C@@H]2c2nc3c(F)ccc(F)c3o2)o1` [Example 851, (R)-(5-(tert-butyl)-1,3,4-oxadiazol-2-yl)(4-(4,7-difluorobenzo[d]oxazol-2-yl)-6,7-dihydro-1H-imidazo[4,5-c]pyridin-5(4H)-yl)methanone] here?
The AC50 was 500 to 1000 nM.

With `O=C(c1ocnc1C1CC1)N1CCc2[nH]cnc2[C@H]1c1nc2cc(F)ccc2o1` [Example 41, (S)-(4-cyclopropyloxazol-5-yl)(4-(5-fluorobenzo[d]oxazol-2-yl)-6,7-dihydro-1H-imidazo[4,5-c]pyridin-5(4H)-yl)methanone] as the compound, how does the AC50 read?
The AC50 was no more than 500 nM.

`Cc1cccc2nc([C@@H]3c4nc[nH]c4CCN3C(=O)c3nc(C(F)F)nn3C)oc12` [Example 613, (S)-(3-(difluoromethyl)-1-methyl-1H-1,2,4-triazol-5-yl)(4-(7-methylbenzo[d]oxazol-2-yl)-6,7-dihydro-1H-imidazo[4,5-c]pyridin-5(4H)-yl)methanone] was tested. Which AC50 did it give?
The AC50 was no more than 500 nM.

`CC(C)n1ncnc1C(=O)N1CCc2[nH]cnc2[C@@H]1c1nc2ccccc2o1` [Example 706, (R)-(4-(benzo[d]oxazol-2-yl)-6,7-dihydro-1H-imidazo[4,5-c]pyridin-5(4H)-yl)(1-isopropyl-1H-1,2,4-triazol-5-yl)methanone] was tested. Which AC50 did it give?
The AC50 was 500 to 1000 nM.

With `CC(C)(O)c1nc(C(F)F)c(C(=O)N2CCc3[nH]cnc3[C@@H]2c2nc3cccc(Br)c3o2)o1` [Example 459, (R)-(4-(7-bromobenzo[d]oxazol-2-yl)-6,7-dihydro-1H-imidazo[4,5-c]pyridin-5(4H)-yl)(4-(difluoromethyl)-2-(2-hydroxypropan-2-yl)oxazol-5-yl)methanone] as the compound, how does the AC50 read?
The AC50 was no more than 500 nM.

With `COc1cccc2oc([C@H]3c4nc[nH]c4CCN3C(=O)c3cnco3)nc12` [Example 622, (R)-(4-(4-methoxybenzo[d]oxazol-2-yl)-6,7-dihydro-1H-imidazo[4,5-c]pyridin-5(4H)-yl)(oxazol-5-yl)methanone] as the compound, how does the AC50 read?
Its AC50 is 1000 to 5000 nM.

`Cc1ccc2oc([C@H]3c4nc[nH]c4CCN3C(=O)c3ncnn3C)nc2c1` [Example 746, (R)-(1-methyl-1H-1,2,4-triazol-5-yl)(4-(5-methylbenzo[d]oxazol-2-yl)-6,7-dihydro-1H-imidazo[4,5-c]pyridin-5(4H)-yl)methanone] was tested. Which AC50 did it give?
The AC50 was 1000 to 5000 nM.

Same assay, conditions: A375 cells expressing R408W PAH; 24 hrs with compound, then 20 μM sepiapterin and 800 μM 13C9,15N-Phenylalanine for 4 hours; 13C-Tyrosine by LC-MS; average where tested multiple times

Which AC50 does the source give for `O=C1CN(CCc2ccc3c(C(=O)N4CCc5[nH]cnc5C4c4nc5cc(F)ccc5o4)cnn3c2)CCN1` (stereo not drawn) here?
The AC50 was 1000 to 5000 nM.

`Cn1cnnc1C(=O)N1CCc2[nH]cnc2C1c1nc2c(F)cccc2o1` (stereo not drawn) was tested. Which AC50 did it give?
Its AC50 is 1000 to 5000 nM.

Which AC50 does the source give for `COC(=O)Nc1ccc2c(C(=O)N3CCc4[nH]cnc4C3c3nc4cc(F)ccc4o3)cnn2c1` (stereo not drawn) here?
Its AC50 is no less than 5000 nM.

Which AC50 does the source give for `O=C(c1cn[nH]c1)N1CCc2[nH]cnc2[C@H]1c1nc2cc(F)ccc2o1` (single isomer, unassigned) here?
Its AC50 is no less than 5000 nM.

Which AC50 does the source give for `O=C(c1cnn2cc(N3CCC(O)CC3)ccc12)N1CCc2[nH]cnc2C1c1nc2ccc(F)c(F)c2o1` (stereo not drawn) here?
The AC50 was 1000 to 5000 nM.

`COc1cccc2nc(C3c4nc[nH]c4CCN3C(=O)c3cc(C(C)(C)C)nn3C)oc12` (stereo not drawn) was tested. Which AC50 did it give?
Its AC50 is 1000 to 5000 nM.

Which AC50 does the source give for `O=C(c1cnn2cc(N3CCNCC3)ccc12)N1CCc2[nH]cnc2[C@H]1c1nc2cc(F)ccc2o1` (single isomer, unassigned) here?
The AC50 was no less than 5000 nM.

How did the AC50 turn out when `O=C(CCc1ncco1)N1CCc2[nH]cnc2C1c1nc2ccc(F)cc2o1` (stereo not drawn) was run?
The AC50 was 1000 to 5000 nM.

Which AC50 does the source give for `O=C(c1nnc(-c2ncccc2F)o1)N1CCc2[nH]cnc2C1c1nc2cc(C(F)(F)F)ccc2o1` (stereo not drawn) here?
Its AC50 is 1000 to 5000 nM.

How did the AC50 turn out when `Cc1ccc2nc(C3c4nc[nH]c4CCN3C(=O)c3cncs3)oc2c1` (stereo not drawn) was run?
The AC50 was no less than 5000 nM.

From patent US20250171437A1 (Agios Pharmaceuticals,Inc., priority 2022, published 2025)
